Experiments:
[1] = tested on: Nephotettix cinciceps (Rice Leafhopper); assay: Method C: Nephotettix cinciceps (Rice Leafhopper) screen, dipped rice plants; format: in vivo, Nephotettix cincticeps; conditions: 144 h, test concentration of 100 ppm, L3 larvae, after 6 days storage
Description: Method C: Nephotettix Cinciceps (Rice Leafhopper) Screen
The leaves of 12 rice plants having a stem length of 8 cm were dipped for 5 seconds into an aqueous solution of the formulated test compound. After the solution had run off, the rice plants treated in this manner were placed in a Petri dish and populated with about 20 larvae (L3 stage) of Nephotettix cincticeps. The Petri dish was closed and then stored in a climate chamber (16 hours of light/day, 25° C., 40-60% relative humidity). After 6 days storage, the percentage mortality of leafhopper larvae was determined.

Compound | melting point [°C] | mortality at 100 ppm [1] [%]
CCSCCCNc1c(S(=O)(=O)C(F)(F)F)c(C#N)nn1-c1c(Cl)cc(C(F)(F)F)cc1Cl [Compound 1-14, 1-(2,6-dichloro-4-trifluoromethylphenyl)-3-cyano-5-(3-ethylthiopropylamino)-4-trifluoromethylsulfonylpyrazole] | 80 | 
[O-][S+](C1CCSC1)C1CCSC1 (stereo not drawn) [Compound 1-37, 3-tetrahydrothienyl sulfoxide] |  | ≥ 98
CCSCCCN(C)c1c(S(=O)(=O)C(F)(F)F)c(C#N)nn1-c1c(Cl)cc(C(F)(F)F)cc1Cl [Compound 2-14, 1-(2,6-dichloro-4-trifluoromethylphenyl)-3-cyano-5-[N-(3-ethylthiopropyl)-N-methylamino]-4-trifluoromethylsulfonylpyrazole] | 89 | 

Source: patent US7517877B2, “5-substituted-alkylaminopyrazole derivatives as pesticides” (Merial Limited, priority 2002, dated 2009)
